Patent publication US20160129070A1, “Glutathione Disulfide Compositions and Related Methods for the Treatment of Cancer” (South Dakota Board of Regents, priority 2014, published 2016)

Tested on: B16-F10 cells lung metastasis
Experiment: Murine lung metastasis assay, B16-F10 cells injected through a tail vein
Type: in vivo, mice
Conditions: no pretreatment of cells; 50 mg/kg i.p. daily for 5 days; day 21
Text: Mice were housed four in a cage and received food and water ad libitum. All mice were used at approximately 7-10 weeks of age and given at least one week break after arrival. All experimental protocols were approved by the Institutional Animal Care and Use Committee. Procedures for murine lung metastasis assays reported previously were followed with minor modification [Bezault, J., Bhimani, R., Wiprovnick, J., and Furmanski, P. (1994) Cancer Res 54, 2310-2312; Kalland, T. (1986) Cancer Res 46, 3018-3022; Schultz, R. M., Silberman, S., Persky, B., Bajkowski, A. S., and Carmichael, D. F. (1988) Cancer Res 48, 5539-5545]. Mice were divided into 7 mice per group for treatment. B16-F10 cells were grown and maintained as monolayers in RPMI 1640 medium supplemented with 10% FBS and 1% penicillin/streptomycin in 5% CO2 at 37° C. The cells were then subjected to FBS starvation in RPMI 1640 medium without FBS for 24 h. Cells were harvested through trypsinization and adjusted to a density of […] with serum free medium. […] The weight of mice was recorded daily. […] Tumor nodules on lung surface were counted under a magnifier.
FIG. 5 presents the representative photographs of the lungs dissected from mice with different treatments. […] The effect was further confirmed by the metastatic tumors counted under a magnifier (Table 3). […]

SMILES: CN(C)/N=N/c1[nH]cnc1C(N)=O [Dacarbazine]
- Number of metastatic tumors in murine lungs, Average: 0.8 ± 2.0
